# Assay results taken from patent US20260297085A1, “1 H-PYRROLO[2,3-B]PYRIDIN-4-YL]-2-OXOPYRROLIDINE-3-CARBONITRILE DERIVATIVES AS TYROSINE KINASE 2 (TYK2) INHIBITORS FOR THE TREATMENT OF INFLAMMATORY DISEASES” (BIOGEN MA INC., priority 2023, published 2026).
# Structures can show the parent of a compound that is named as a salt.
# Legend:
# [1] = target: T1, human JAK2 kinase domain (JH1) (Homo sapiens, UniProt O60674); test: JH1 biochemical assay for JAK2 (ADP-Glo kinase assay, recombinant JH1 catalytic domain, JAK3-974 peptide, 15 μM ATP); conditions: JH1 kinase domain, ADP-Glo
# T1 construct: recombinantly generated catalytic kinase (also known as JH1) domain of human JAK1, JAK2, JAK3 and TYK2
# T1 sequence (O60674 849-1124 limits assumed): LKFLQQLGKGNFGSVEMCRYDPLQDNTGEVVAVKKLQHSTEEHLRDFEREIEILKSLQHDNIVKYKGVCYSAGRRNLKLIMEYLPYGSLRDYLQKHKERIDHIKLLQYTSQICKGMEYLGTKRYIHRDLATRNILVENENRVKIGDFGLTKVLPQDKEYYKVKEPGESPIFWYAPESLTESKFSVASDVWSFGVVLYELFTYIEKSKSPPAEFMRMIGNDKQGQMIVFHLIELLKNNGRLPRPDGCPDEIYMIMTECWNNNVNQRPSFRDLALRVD
# In short: (§1)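 Reactions ran 100 min with 50 μM substrate peptide (JAK3-342 for JAK1 at 4 nM enzyme; JAK3-974 for JAK2 0.2 nM, JAK3 0.3 nM, TYK2 2 nM), and ADP formed was read by ADP-Glo luminescence. Eleven-point 3-fold series from 10 or 1 μM; IC50 fitted by 4-parameter logistic model.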
# [2] = target: T2, human JAK3 kinase domain (JH1) (Homo sapiens, UniProt P52333); test: JH1 biochemical assay for JAK3 (ADP-Glo kinase assay, recombinant JH1 catalytic domain, JAK3-974 peptide, 4 μM ATP); conditions: JH1 kinase domain, ADP-Glo
# T2 construct: recombinantly generated catalytic kinase (also known as JH1) domain of human JAK1, JAK2, JAK3 and TYK2
# T2 sequence (P52333 822-1111 limits assumed): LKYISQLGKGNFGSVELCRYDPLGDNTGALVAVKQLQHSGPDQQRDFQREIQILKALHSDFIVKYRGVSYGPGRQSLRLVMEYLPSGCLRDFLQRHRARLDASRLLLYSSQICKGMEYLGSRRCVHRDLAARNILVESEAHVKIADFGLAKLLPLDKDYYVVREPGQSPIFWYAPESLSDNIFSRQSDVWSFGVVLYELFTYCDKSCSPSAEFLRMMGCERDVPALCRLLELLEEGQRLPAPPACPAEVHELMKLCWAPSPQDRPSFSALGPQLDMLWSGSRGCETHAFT
# In short: as §1
# [3] = target: T3, human TYK2 kinase domain (JH1) (Homo sapiens, UniProt P29597); test: JH1 biochemical assay for TYK2 (ADP-Glo kinase assay, recombinant JH1 catalytic domain, JAK3-974 peptide, 10 μM ATP); conditions: JH1 kinase domain, ADP-Glo
# T3 construct: recombinantly generated catalytic kinase (also known as JH1) domain of human JAK1, JAK2, JAK3 and TYK2
# T3 sequence (P29597 897-1176 limits assumed): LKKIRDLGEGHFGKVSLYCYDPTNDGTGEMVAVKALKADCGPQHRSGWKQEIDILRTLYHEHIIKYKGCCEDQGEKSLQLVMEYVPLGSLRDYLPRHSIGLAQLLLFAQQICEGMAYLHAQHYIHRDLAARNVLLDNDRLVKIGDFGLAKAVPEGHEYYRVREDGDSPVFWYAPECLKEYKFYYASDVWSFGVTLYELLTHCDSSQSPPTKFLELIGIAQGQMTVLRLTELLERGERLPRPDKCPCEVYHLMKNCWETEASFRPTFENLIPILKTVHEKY
# In short: as §1
# [4] = target: T4, human JAK1 kinase domain (JH1) (Homo sapiens, UniProt P23458); test: JH1 biochemical assay for JAK1 (ADP-Glo kinase assay, recombinant JH1 catalytic domain, JAK3-342 peptide, 35 μM ATP); conditions: JH1 kinase domain, ADP-Glo
# T4 construct: recombinantly generated catalytic kinase (also known as JH1) domain of human JAK1, JAK2, JAK3 and TYK2
# T4 sequence (P23458 875-1153 limits assumed): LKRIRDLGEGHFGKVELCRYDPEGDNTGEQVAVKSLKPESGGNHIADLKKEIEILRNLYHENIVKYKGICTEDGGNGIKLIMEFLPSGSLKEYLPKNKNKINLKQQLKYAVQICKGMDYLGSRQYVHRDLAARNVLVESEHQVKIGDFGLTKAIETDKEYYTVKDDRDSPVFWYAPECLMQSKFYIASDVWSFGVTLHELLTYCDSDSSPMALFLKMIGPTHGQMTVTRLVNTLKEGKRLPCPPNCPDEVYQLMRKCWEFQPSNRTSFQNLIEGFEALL
# In short: as §1
# [5] = target: JAK2 kinase activity on STAT5 in TF1 cells (Homo sapiens, UniProt O60674); test: pSTAT5 cell assay (MSD; TF1 cells, 30 ng/mL IL-3 stimulation); assay type: cell-based; conditions: 30 ng/mL IL-3, 15 minutes
# JAK2 kinase activity on STAT5 in TF1 cells, sequence (O60674 whole entry): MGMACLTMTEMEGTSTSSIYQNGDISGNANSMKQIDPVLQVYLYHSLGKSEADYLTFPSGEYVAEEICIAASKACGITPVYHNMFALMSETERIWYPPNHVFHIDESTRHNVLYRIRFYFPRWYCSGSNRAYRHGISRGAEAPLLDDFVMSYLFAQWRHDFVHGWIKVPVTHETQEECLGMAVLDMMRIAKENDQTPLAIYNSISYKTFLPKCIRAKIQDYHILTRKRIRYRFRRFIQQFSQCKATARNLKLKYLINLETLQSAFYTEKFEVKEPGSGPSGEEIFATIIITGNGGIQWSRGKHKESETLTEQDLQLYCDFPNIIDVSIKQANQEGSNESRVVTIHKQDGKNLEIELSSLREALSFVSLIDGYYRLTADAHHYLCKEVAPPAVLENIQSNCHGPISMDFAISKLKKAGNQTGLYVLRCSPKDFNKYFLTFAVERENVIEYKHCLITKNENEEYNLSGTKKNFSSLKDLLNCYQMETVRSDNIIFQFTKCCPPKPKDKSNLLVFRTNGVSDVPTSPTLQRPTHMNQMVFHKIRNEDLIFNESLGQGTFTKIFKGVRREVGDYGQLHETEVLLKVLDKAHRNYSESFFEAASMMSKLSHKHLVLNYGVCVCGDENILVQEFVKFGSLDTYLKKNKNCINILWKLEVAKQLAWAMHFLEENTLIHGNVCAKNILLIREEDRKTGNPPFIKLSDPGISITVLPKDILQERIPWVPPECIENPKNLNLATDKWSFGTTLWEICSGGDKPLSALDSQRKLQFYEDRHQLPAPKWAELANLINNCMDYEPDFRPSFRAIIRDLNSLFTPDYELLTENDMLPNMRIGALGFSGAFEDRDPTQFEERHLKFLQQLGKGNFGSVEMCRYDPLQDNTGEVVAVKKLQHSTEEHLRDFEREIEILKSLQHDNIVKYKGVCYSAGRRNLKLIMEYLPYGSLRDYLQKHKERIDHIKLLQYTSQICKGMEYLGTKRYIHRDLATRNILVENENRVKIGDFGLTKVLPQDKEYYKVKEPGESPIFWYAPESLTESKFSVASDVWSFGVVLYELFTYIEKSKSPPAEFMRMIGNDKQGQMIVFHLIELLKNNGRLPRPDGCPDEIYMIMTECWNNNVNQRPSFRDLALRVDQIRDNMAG
# In short: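 IC50 from a 4-parameter logistic fit of normalized pSTAT5 signal, measured by MSD in lysates of TF1 cells. Cells were serum-starved, exposed to compound for 1 h (top concentration 10 μM, four-fold, 10 points), then given IL-3 at 30 ng/mL for 15 min.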
# [6] = target: JAK1 kinase activity on STAT3 in TF1 cells (Homo sapiens, UniProt P23458); test: pSTAT3 cell assay (MSD; TF1 cells, 30 ng/mL IL-6 stimulation); assay type: cell-based; conditions: 30 ng/mL IL-6, 15 minutes
# JAK1 kinase activity on STAT3 in TF1 cells, sequence (P23458 whole entry): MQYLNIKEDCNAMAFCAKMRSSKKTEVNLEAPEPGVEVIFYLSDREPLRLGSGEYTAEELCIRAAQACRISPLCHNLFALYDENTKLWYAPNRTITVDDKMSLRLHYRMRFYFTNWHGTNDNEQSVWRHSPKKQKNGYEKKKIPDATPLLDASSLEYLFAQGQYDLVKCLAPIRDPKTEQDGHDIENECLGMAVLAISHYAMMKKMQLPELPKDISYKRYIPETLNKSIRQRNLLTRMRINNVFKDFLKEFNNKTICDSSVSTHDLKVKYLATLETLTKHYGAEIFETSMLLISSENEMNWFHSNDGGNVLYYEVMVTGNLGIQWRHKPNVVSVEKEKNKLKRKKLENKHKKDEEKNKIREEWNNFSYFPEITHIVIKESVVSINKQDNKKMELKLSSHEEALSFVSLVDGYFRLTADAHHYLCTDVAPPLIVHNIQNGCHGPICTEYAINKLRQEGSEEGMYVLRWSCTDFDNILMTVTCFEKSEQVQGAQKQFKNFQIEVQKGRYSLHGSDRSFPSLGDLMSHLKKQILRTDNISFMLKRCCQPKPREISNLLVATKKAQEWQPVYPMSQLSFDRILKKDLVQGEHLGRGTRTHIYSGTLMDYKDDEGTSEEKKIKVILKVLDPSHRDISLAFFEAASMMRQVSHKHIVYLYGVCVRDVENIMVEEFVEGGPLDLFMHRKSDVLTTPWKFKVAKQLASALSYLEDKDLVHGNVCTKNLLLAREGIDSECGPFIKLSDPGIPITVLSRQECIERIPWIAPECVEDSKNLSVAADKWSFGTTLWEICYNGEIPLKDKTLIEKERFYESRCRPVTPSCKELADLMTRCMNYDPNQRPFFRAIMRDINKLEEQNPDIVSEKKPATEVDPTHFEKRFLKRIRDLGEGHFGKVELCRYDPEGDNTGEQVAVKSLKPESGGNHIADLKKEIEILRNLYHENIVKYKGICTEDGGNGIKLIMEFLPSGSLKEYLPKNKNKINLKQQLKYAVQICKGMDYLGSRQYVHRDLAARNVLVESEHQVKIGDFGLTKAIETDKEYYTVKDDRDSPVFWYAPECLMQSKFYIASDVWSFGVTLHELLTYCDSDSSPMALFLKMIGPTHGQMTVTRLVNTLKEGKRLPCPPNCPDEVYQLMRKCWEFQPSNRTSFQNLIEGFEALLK
# In short: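 Serum starvation, 1 h compound (10 pt, 4-fold from 10 μM), IL-6 15 min, lysis. pSTAT3 read by MSD immunoassay, anti-STAT3 Abs. Normalized % activity vs log[cpd], 4-PL fit → IC50.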
# [7] = target: Tyk2 kinase activity on STAT4 in NK92 cells (Homo sapiens, UniProt P29597); test: pSTAT4 cell assay (MSD; NK92 cells, 30 ng/mL IL2 stimulation); assay type: cell-based; conditions: 30 ng/mL IL2, 15 minutes
# Tyk2 kinase activity on STAT4 in NK92 cells, sequence (P29597 whole entry): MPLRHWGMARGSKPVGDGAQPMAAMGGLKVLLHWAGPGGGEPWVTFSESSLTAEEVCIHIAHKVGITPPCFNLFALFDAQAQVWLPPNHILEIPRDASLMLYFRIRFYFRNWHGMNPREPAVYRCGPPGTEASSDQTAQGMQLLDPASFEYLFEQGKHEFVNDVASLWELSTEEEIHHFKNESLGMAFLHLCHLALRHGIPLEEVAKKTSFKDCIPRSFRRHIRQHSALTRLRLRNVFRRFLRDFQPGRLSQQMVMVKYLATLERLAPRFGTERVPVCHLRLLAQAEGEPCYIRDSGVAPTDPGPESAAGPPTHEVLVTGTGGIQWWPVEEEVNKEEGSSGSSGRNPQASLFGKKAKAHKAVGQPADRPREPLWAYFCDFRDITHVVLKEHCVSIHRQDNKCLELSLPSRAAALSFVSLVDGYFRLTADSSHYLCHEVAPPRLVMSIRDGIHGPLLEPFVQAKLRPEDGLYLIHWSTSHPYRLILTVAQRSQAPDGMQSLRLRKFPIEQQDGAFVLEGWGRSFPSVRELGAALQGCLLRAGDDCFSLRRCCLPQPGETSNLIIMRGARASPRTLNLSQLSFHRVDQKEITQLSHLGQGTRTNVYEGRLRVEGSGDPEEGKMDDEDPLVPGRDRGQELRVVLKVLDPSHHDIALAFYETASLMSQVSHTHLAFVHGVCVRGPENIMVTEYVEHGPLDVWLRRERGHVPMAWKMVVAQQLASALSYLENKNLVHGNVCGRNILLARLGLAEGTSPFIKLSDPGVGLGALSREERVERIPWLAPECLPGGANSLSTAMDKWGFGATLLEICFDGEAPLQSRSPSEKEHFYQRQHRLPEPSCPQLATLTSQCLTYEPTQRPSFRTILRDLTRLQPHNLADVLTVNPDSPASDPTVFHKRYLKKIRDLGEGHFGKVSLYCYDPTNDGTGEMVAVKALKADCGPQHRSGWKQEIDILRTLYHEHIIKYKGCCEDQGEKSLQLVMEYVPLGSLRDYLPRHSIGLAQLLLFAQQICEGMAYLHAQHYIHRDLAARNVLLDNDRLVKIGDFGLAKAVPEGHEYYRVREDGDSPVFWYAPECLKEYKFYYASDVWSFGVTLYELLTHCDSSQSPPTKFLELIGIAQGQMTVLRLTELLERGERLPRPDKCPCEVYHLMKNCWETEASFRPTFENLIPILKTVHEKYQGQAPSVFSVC
# In short: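 Read-out: phospho-STAT in NK92 lysates, MSD format, anti-STAT4 antibodies. Cells were serum-starved, given compound for 1 hr (10 μM top, four-fold, 10 points) and IL2-stimulated (30 ng/mL, 15 min). Normalized percent activity vs log concentration, 4-parameter logistic fit gave IC50.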
Compound,IC50 [1],IC50 [2],IC50 [3],IC50 [4],IC50 [5],IC50 [6],IC50 [7]
"C[C@@H]1CN(c2ccnn3cc(-c4cccc5cncn45)cc23)C(=O)[C@]1(C#N)C1CC1 [Example 128, (3R,4S)-3-cyclopropyl-1-(6-(imidazo[1,5-a]pyridin-5-yl)pyrrolo[1,2-b]pyridazin-4-yl)-4-methyl-2-oxopyrrolidine-3-carbonitrile trifluoroacetate]",1 to 5 µM,0.1 to 1 µM,0.005 to 0.02 µM,0.1 to 1 µM,> 10 µM,> 10 µM,> 0.1 µM
"C[C@@H]1CN(c2ccnn3cc(-c4cccc(C(F)F)n4)cc23)C(=O)[C@]1(C#N)C1CC1 [Example 135, (3R,4S)-3-cyclopropyl-1-(6-(6-(difluoromethyl)pyridin-2-yl)pyrrolo[1,2-b]pyridazin-4-yl)-4-methyl-2-oxopyrrolidine-3-carbonitrile trifluoroacetate]",0.1 to 1 µM,0.1 to 1 µM,0.005 to 0.02 µM,0.1 to 1 µM,> 10 µM,1 to 5 µM,> 0.1 µM
"COc1ccc(-c2cc3c(N4C[C@@H](C)[C@@](C#N)(C5CC5)C4=O)ccnn3c2)nc1 [Example 145, (3R,4S)-3-cyclopropyl-1-(6-(5-methoxypyridin-2-yl)pyrrolo[1,2-b]pyridazin-4-yl)-4-methyl-2-oxopyrrolidine-3-carbonitrile trifluoroacetate]",0.1 to 1 µM,0.1 to 1 µM,0.005 to 0.02 µM,0.1 to 1 µM,> 10 µM,5 to 10 µM,> 0.1 µM
"C[C@@H]1CN(c2ccnn3cc(-c4cnn(-c5cccnc5)c4)cc23)C(=O)[C@]1(C#N)C1CC1 [Example 159, (3R,4S)-3-cyclopropyl-4-methyl-2-oxo-1-(6-(1-(pyridin-3-yl)-1H-pyrazol-4-yl)pyrrolo[1,2-b]pyridazin-4-yl)pyrrolidine-3-carbonitrile]",0.1 to 1 µM,0.1 to 1 µM,< 0.005 µM,0.1 to 1 µM,5 to 10 µM,1 to 5 µM,0.05 to 0.1 µM
"C[C@@H]1CN(c2ccnn3cc(-c4cnn(-c5ccncc5)c4)cc23)C(=O)[C@]1(C#N)C1CC1 [Example 160, (3R,4S)-3-cyclopropyl-4-methyl-2-oxo-1-(6-(1-(pyridin-4-yl)-1H-pyrazol-4-yl)pyrrolo[1,2-b]pyridazin-4-yl)pyrrolidine-3-carbonitrile]",0.1 to 1 µM,0.1 to 1 µM,< 0.005 µM,0.1 to 1 µM,1 to 5 µM,1 to 5 µM,0.05 to 0.1 µM
"C[C@@H]1CN(c2ccnn3cc(-c4cnn(S(C)(=O)=O)c4)cc23)C(=O)[C@]1(C#N)C1CC1 [Example 163, (3R,4S)-3-cyclopropyl-4-methyl-1-(6-(1-(methylsulfonyl)-1H-pyrazol-4-yl)pyrrolo[1,2-b]pyridazin-4-yl)-2-oxopyrrolidine-3-carbonitrile]",0.1 to 1 µM,0.1 to 1 µM,< 0.005 µM,0.1 to 1 µM,5 to 10 µM,1 to 5 µM,> 0.1 µM

# Next, values leading:
IC50 [1],IC50 [2],IC50 [3],IC50 [4],IC50 [5],IC50 [6],IC50 [7],Compound
0.1 to 1 µM,0.1 to 1 µM,0.005 to 0.02 µM,0.1 to 1 µM,> 10 µM,5 to 10 µM,> 0.1 µM,"C[C@@H]1CN(c2ccnn3cc(-c4ccc(CC#N)cn4)cc23)C(=O)[C@]1(C#N)C1CC1 [Example 127, (3R,4S)-1-(6-(5-(cyanomethyl)pyridin-2-yl)pyrrolo[1,2-b]pyridazin-4-yl)-3-cyclopropyl-4-methyl-2-oxopyrrolidine-3-carbonitrile trifluoroacetate]"
0.1 to 1 µM,0.1 to 1 µM,< 0.005 µM,< 0.1 µM,1 to 5 µM,0.1 to 1 µM,0.05 to 0.1 µM,"CC(=O)Nc1cccc(-c2cc3c(N4C[C@@H](C)[C@@](C#N)(C5CC5)C4=O)ccnn3c2)n1 [Example 131, N-(6-(4-((3R,4S)-3-cyano-3-cyclopropyl-4-methyl-2-oxopyrrolidin-1-yl)pyrrolo[1,2-b]pyridazin-6-yl)pyridin-2-yl)acetamide trifluoroacetate]"
0.1 to 1 µM,0.1 to 1 µM,0.005 to 0.02 µM,0.1 to 1 µM,5 to 10 µM,1 to 5 µM,> 0.1 µM,"C[C@@H]1CN(c2ccnn3cc(-c4ccc(N(C)C)cn4)cc23)C(=O)[C@]1(C#N)C1CC1 [Example 134, (3R,4S)-3-cyclopropyl-1-(6-(5-(dimethylamino)pyridin-2-yl)pyrrolo[1,2-b]pyridazin-4-yl)-4-methyl-2-oxopyrrolidine-3-carbonitrile trifluoroacetate]"
< 0.1 µM,< 0.1 µM,< 0.005 µM,< 0.1 µM,1 to 5 µM,0.1 to 1 µM,0.05 to 0.1 µM,"C[C@@H]1CN(c2ccnn3cc(-c4cnn(C5CC(F)(F)C5)c4)cc23)C(=O)[C@]1(C#N)C1CC1 [Example 157, (3R,4S)-3-cyclopropyl-1-(6-(1-(3,3-difluorocyclobutyl)-1H-pyrazol-4-yl)pyrrolo[1,2-b]pyridazin-4-yl)-4-methyl-2-oxopyrrolidine-3-carbonitrile]"
0.1 to 1 µM,0.1 to 1 µM,< 0.005 µM,0.1 to 1 µM,> 10 µM,1 to 5 µM,> 0.1 µM,"C[C@@H]1CN(c2ccnn3cc(-c4cnn(-c5ccccn5)c4)cc23)C(=O)[C@]1(C#N)C1CC1 [Example 158, (3R,4S)-3-cyclopropyl-4-methyl-2-oxo-1-(6-(1-(pyridin-2-yl)-1H-pyrazol-4-yl)pyrrolo[1,2-b]pyridazin-4-yl)pyrrolidine-3-carbonitrile]"
0.1 to 1 µM,0.1 to 1 µM,< 0.005 µM,0.1 to 1 µM,1 to 5 µM,1 to 5 µM,0.02 to 0.05 µM,"C[C@@H]1CN(c2ccnn3cc(-c4cnn(C5CC5)c4)cc23)C(=O)[C@]1(C#N)C1CC1 [Example 161, (3R,4S)-3-cyclopropyl-1-(6-(1-cyclopropyl-1H-pyrazol-4-yl)pyrrolo[1,2-b]pyridazin-4-yl)-4-methyl-2-oxopyrrolidine-3-carbonitrile]"
< 0.1 µM,< 0.1 µM,< 0.005 µM,< 0.1 µM,1 to 5 µM,1 to 5 µM,0.02 to 0.05 µM,"C[C@@H]1CN(c2ccnn3cc(-c4cnn(C5CCOC5)c4)cc23)C(=O)[C@]1(C#N)C1CC1 (stereo partly drawn) [Example 162, (3R,4S)-3-cyclopropyl-4-methyl-2-oxo-1-(6-(1-(tetrahydrofuran-3-yl)-1H-pyrazol-4-yl)pyrrolo[1,2-b]pyridazin-4-yl)pyrrolidine-3-carbonitrile]"
0.1 to 1 µM,< 0.1 µM,< 0.005 µM,< 0.1 µM,5 to 10 µM,1 to 5 µM,0.02 to 0.05 µM,"[2H]C([2H])([2H])n1cc(-c2cc3c(N4C[C@@H](C)[C@@](C#N)(C5CC5)C4=O)ccnn3c2)cn1 [Example 164, (3R,4 S)-3-cyclopropyl-4-methyl-1-(6-(1-(methyl-d3)-1H-pyrazol-4-yl)pyrrolo[1,2-b]pyridazin-4-yl)-2-oxopyrrolidine-3-carbonitrile]"
0.1 to 1 µM,0.1 to 1 µM,< 0.005 µM,0.1 to 1 µM,5 to 10 µM,1 to 5 µM,0.02 to 0.05 µM,"Cc1nn(C)cc1-c1cc2c(N3C[C@@H](C)[C@@](C#N)(C4CC4)C3=O)ccnn2c1 [Example 165, (3R,4S)-3-cyclopropyl-1-(6-(1,3-dimethyl-1H-pyrazol-4-yl)pyrrolo[1,2-b]pyridazin-4-yl)-4-methyl-2-oxopyrrolidine-3-carbonitrile]"
0.1 to 1 µM,0.1 to 1 µM,0.005 to 0.02 µM,0.1 to 1 µM,> 10 µM,> 10 µM,> 0.1 µM,"Cc1c(-c2cc3c(N4C[C@@H](C)[C@@](C#N)(C5CC5)C4=O)ccnn3c2)cnn1C [Example 166, (3R,4S)-3-cyclopropyl-1-(6-(1,5-dimethyl-1H-pyrazol-4-yl)pyrrolo[1,2-b]pyridazin-4-yl)-4-methyl-2-oxopyrrolidine-3-carbonitrile]"
